“And” between values parts separate entries of the source, which are not always exact repeats. Equal values may be shown once. ± gives the expanded uncertainty stated by the source.
Test: refractive index (other wavelength) (dimensionless); xn = mol fraction of the nth substance listed

CCCCCCCC[n+]1ccn(C)c1.F[B-](F)(F)F [1-methyl-3-octylimidazolium tetrafluoroborate] + CCCCCCCO
Minimum deviation
Conditions	refractive index
307.36 K, Liquid mixture 2, Wavelength=623.8 nm, x1 = 0.199	1.4211 ± 0.0003
307.39 K, Liquid mixture 1, Wavelength=623.8 nm, x1 = 0.089	1.4194 ± 0.0003
307.39 K, Liquid mixture 2, Wavelength=623.8 nm, x1 = 0.193	1.421 ± 0.0003
307.41 K, Liquid mixture 1, Wavelength=623.8 nm, x1 = 0.09	1.4194 ± 0.0003
307.41 K, Liquid mixture 2, Wavelength=623.8 nm, x1 = 0.186	1.4209 ± 0.0003
307.44 K, Liquid mixture 1, Wavelength=623.8 nm, x1 = 0.096	1.4195 ± 0.0003
307.44 K, Liquid mixture 2, Wavelength=623.8 nm, x1 = 0.187	1.4209 ± 0.0003
307.45 K, Liquid mixture 1, Wavelength=623.8 nm, x1 = 0.097	1.4195 ± 0.0003
307.45 K, Liquid mixture 2, Wavelength=623.8 nm, x1 = 0.18	1.4208 ± 0.0003
307.47 K, Liquid mixture 1, Wavelength=623.8 nm, x1 = 0.097	1.4195 ± 0.0003
307.47 K, Liquid mixture 2, Wavelength=623.8 nm, x1 = 0.181	1.4208 ± 0.0003
307.48 K, Liquid mixture 1, Wavelength=623.8 nm, x1 = 0.097	1.4195 ± 0.0003
307.48 K, Liquid mixture 2, Wavelength=623.8 nm, x1 = 0.174	1.4207 ± 0.0003
307.49 K, Liquid mixture 1, Wavelength=623.8 nm, x1 = 0.104	1.4196 ± 0.0003
307.49 K, Liquid mixture 2, Wavelength=623.8 nm, x1 = 0.175	1.4207 ± 0.0003
307.5 K, Liquid mixture 1, Wavelength=623.8 nm, x1 = 0.104	1.4196 ± 0.0003
307.5 K, Liquid mixture 2, Wavelength=623.8 nm, x1 = 0.168	1.4206 ± 0.0003
307.51 K, Liquid mixture 1, Wavelength=623.8 nm, x1 = 0.104	1.4196 ± 0.0003
307.51 K, Liquid mixture 2, Wavelength=623.8 nm, x1 = 0.168	1.4206 ± 0.0003
307.52 K, Liquid mixture 1, Wavelength=623.8 nm, x1 = 0.104	1.4196 ± 0.0003
307.52 K, Liquid mixture 1, Wavelength=623.8 nm, x1 = 0.111	1.4197 ± 0.0003
307.52 K, Liquid mixture 2, Wavelength=623.8 nm, x1 = 0.155	1.4204 ± 0.0003
307.52 K, Liquid mixture 2, Wavelength=623.8 nm, x1 = 0.162	1.4205 ± 0.0003 and 1.4205 ± 0.0005
307.53 K, Liquid mixture 1, Wavelength=623.8 nm, x1 = 0.111	1.4197 ± 0.0003
307.53 K, Liquid mixture 1, Wavelength=623.8 nm, x1 = 0.117	1.4198 ± 0.0003 and 1.4198 ± 0.0004
307.53 K, Liquid mixture 2, Wavelength=623.8 nm, x1 = 0.149	1.4203 ± 0.0003
307.53 K, Liquid mixture 2, Wavelength=623.8 nm, x1 = 0.155	1.4204 ± 0.0003

85 kPa, Liquid, Wavelength=632.8 nm, Minimum Deviation
Conditions	refractive index
307.74 K, x1 = 0.2	1.421 ± 0.0003
307.74 K, x1 = 0.3	1.4225 ± 0.0003
308 K, x1 = 0.399	1.4235 ± 0.0003
308.01 K, x1 = 0.1	1.4195 ± 0.0003
308.5 K, x1 = 0.7	1.4265 ± 0.0003
308.52 K, x1 = 0.6	1.4256 ± 0.0003
308.6 K, x1 = 0.5	1.4245 ± 0.0003
308.63 K, x1 = 0.8	1.4274 ± 0.0003
309.13 K, x1 = 0.3	1.422 ± 0.001
309.27 K, x1 = 0.898	1.428 ± 0.0003
309.33 K, x1 = 0.2	1.4204 ± 0.0003
309.52 K, x1 = 0.1	1.4189 ± 0.0003
309.56 K, x1 = 0.399	1.423 ± 0.001
310.16 K, x1 = 0.5	1.424 ± 0.0003
310.34 K, x1 = 0.7	1.426 ± 0.0003
310.34 K, x1 = 0.8	1.4269 ± 0.0003
310.75 K, x1 = 0.3	1.4214 ± 0.0003
310.81 K, x1 = 0.6	1.4249 ± 0.0003
310.88 K, x1 = 0.2	1.4199 ± 0.0003
311.04 K, x1 = 0.1	1.4183 ± 0.0003
311.13 K, x1 = 0.399	1.4225 ± 0.0003
311.28 K, x1 = 0.898	1.4274 ± 0.0003
311.69 K, x1 = 0.5	1.4235 ± 0.0003
312.29 K, x1 = 0.3	1.4209 ± 0.0003
312.54 K, x1 = 0.2	1.4193 ± 0.0003
312.58 K, x1 = 0.1	1.4178 ± 0.0003
312.73 K, x1 = 0.6	1.4243 ± 0.0003
313.03 K, x1 = 0.399	1.4219 ± 0.0003
313.17 K, x1 = 0.5	1.4231 ± 0.0003
313.86 K, x1 = 0.3	1.4204 ± 0.0003
314.02 K, x1 = 0.2	1.4188 ± 0.0003
314.06 K, x1 = 0.1	1.4172 ± 0.0003
314.31 K, x1 = 0.399	1.4214 ± 0.0003
314.64 K, x1 = 0.6	1.4237 ± 0.0003
315.45 K, x1 = 0.3	1.4198 ± 0.0003
315.63 K, x1 = 0.1	1.4166 ± 0.0003
315.63 K, x1 = 0.2	1.4183 ± 0.0003
316.32 K, x1 = 0.399	1.4208 ± 0.0003
316.32 K, x1 = 0.6	1.4232 ± 0.0003

From the NIST ThermoML archive (doi:10.1016/j.fluid.2015.03.015)
